# Tests used:
# [1] = test system: inflammatory cytokines (IL-1β, IL-6) in lung tissue; experiment: LPS-induced acute lung injury, inflammatory cytokines by ELISA; type: in vivo, C57BL/6 mice; details: for IL-1β: LPS 2411.32; for IL-6: LPS 3520.94
# Description: After a 7-day acclimatization period, mice were used for subsequent experiments.
# The abdomen was opened, and the lungs were removed. They were rinsed twice with pre-chilled PBS. […] The remaining tissue was stored at −70° C. for future use.
# Data Statistics: All data are expressed as means S.E.M. Statistical differences between groups were analyzed using one-way ANOVA and t-tests in SPSS software. P values less than 0.05 were considered statistically significant.
# serum ALT and AST = experiment: CCl4-induced acute liver injury, serum ALT and AST; type: in vivo, C57BL/6 mice
# Description: (§1) They were acclimated for 7 days before use in experiments.
# (§2) Mice were randomly assigned to groups. One group was arbitrarily designated as the normal group, while the remaining groups served as model group, Compound 1 group, Hydrochloride 20 group, Fumarate 21 group, and Silibinin group, with 6 mice per group. Except for the normal group receiving 10 mL olive oil/kg via injection, all other mice received 0.5 mL CCl4+9.5 mL olive oil/kg body weight via intraperitoneal injection, maintaining a CCl4 to olive oil ratio of 1:19. Starting from day 1 of modeling, Compound 1, Hydrochloride 20, and Fumarate 21 were administered orally for 3 consecutive days.
# (§3) The blood was allowed to stand at room temperature for 2 hours, then centrifuged at 3000 rpm for 20 minutes. Serum was aspirated, aliquoted, and stored at −70° C. for future use. After blood collection, euthanize mice by cervical dislocation. Perform laparotomy to remove the liver. Rinse twice with pre-chilled PBS. Excise the left hepatic lobe tissue. […] Store remaining tissue at −70° C. for future use.
# Serum AST and ALT Assay: Use 10 μL of each sample for testing. Determine mouse serum AST and ALT levels according to the operating manual. Measure absorbance at 510 nm using an enzyme-linked immunosorbent assay (ELISA) reader. Calculate sample concentration (U/L) based on the standard curve.
# (§4) Data Statistics: All data are expressed as means f standard error of the mean (S.E.M.). Differences were analyzed for significance using analysis of variance (ANOVA). For groups showing significant differences in ANOVA, one-way ANOVA followed by Dunnett's test was performed to compare intergroup differences.
# [2] = test system: fibrosis-related factors (Acta2, Col1a1, Tgfb1) in liver tissue; experiment: CCl4-induced acute liver injury, liver fibrosis-related factor mRNA; type: in vivo, C57BL/6 mice; design: unit not given here
# Description: as §1, §2, §3
# Q-PCR Analysis: Tissue total RNA extraction, cDNA synthesis, and PCR amplification methods are identical to Example 4. Additional primer information is as follows:
# as §4
# [3] = test system: inflammatory cytokines (TNF, IL-6, IL-1) in renal tissue; experiment: UUO chronic kidney injury, renal inflammatory factor mRNA; type: in vivo, C57BL/6 mice; design: unit not given here; details: UUO chronic model
# Excerpt: Chronic Kidney Injury: Mice were randomly divided into five groups. […] Except for the sham-operated mice in the normal group (where only the left ureter was exposed without further manipulation), all other mice underwent unilateral ureteral ligation to establish a chronic kidney injury model as follows: The abdominal skin was disinfected with iodine solution followed by alcohol. An incision was made, and the abdominal layers were dissected sequentially. The left ureter was fully exposed and dissected. A double ligation was performed at the bladder-proximal end of the left ureter using absorbable suture material, followed by closure.
# (§5) The blood was allowed to stand at room temperature for 2 hours, then centrifuged at 3000 rpm for 20 minutes. Serum was aspirated, aliquoted, and stored at −70° C. for future use. Following blood collection, euthanize mice by cervical dislocation. Perform laparotomy to remove kidneys, dissect out perirenal fat and capsules. […] Paraffin-embedded specimens undergo HE staining; remaining tissue is stored at −70° C. for future use.
# [4] = test system: inflammatory factors (TNF, IL-6, IL-1) in renal tissue; experiment: Lupus nephritis, renal inflammatory factor mRNA; type: in vivo, MRL/lpr mice; details: 8 weeks
# Description: Experimental animals: MRI/MpJ and MRL/lpr mice, female, 10 weeks old, purchased from GemPharmatech LLC. Production license number: SCXK(Su)2023-0009. […] They were acclimated for 7 days before use in experiments.
# Oral administration was performed continuously for 8 weeks.
# Allow blood to stand at room temperature for 2 hours, then centrifuge at 3000 rpm for 20 minutes. Aspirate the serum, aliquot it, and store at −70° C. for future use. After blood collection, euthanize mice by cervical dislocation. Open the abdominal cavity, remove kidneys, and dissect out perirenal fat and capsules. […] Store remaining tissues at −70° C. for future use.
# [5] = test system: inflammatory factors (TNF, IL-6, IL-1) in renal tissue; experiment: LPS-induced sepsis, renal inflammatory factor mRNA (Q-PCR); details: for Tnf mRNA expression, kidney: LPS 7.30; for Il1 mRNA expression, kidney: LPS 7.99; for Il6 mRNA expression, kidney: LPS 8.80
# Description: (§6) They were acclimated for 7 days before experimentation.
# (§7) The normal and model groups received equal volumes of solvent (0.5% CMC-Na) via oral gavage.
# (§8) Specimen Collection: One hour after the final drug administration, mice were euthanized by cervical dislocation. The abdominal cavity was opened, and the lungs, liver, and kidneys were removed. These organs were rinsed twice with pre-chilled PBS. Tissue samples were excised from the mouse lungs, left hepatic lobe, and kidneys. […] Remaining tissues were stored at −70° C. for future use.
# (§9) Accurately weigh 20 mg of kidney, lung, and liver tissue. Rinse with pre-chilled PBS solution, cut into small pieces using ophthalmic scissors, and place into a glass homogenizer. Add 1 mL of Trizol reagent and grind to prepare tissue homogenate. Transfer the homogenate to a RNAse-free 1.5 mL EP tube and lyse on ice for 10 min. Add 200 μL chloroform, vortex vigorously, and let stand on ice for 3-5 min. Centrifuge at 12,000 rpm and 4° C. for 15 min. Carefully transfer the supernatant to a new RNAse-free 1.5 mL EP tube. Add an equal volume of pre-chilled isopropanol, incubate on ice for 30 min, then centrifuge at 12,000 rpm and 4° C. for 10 min. Discard the supernatant. […] Subsequently, dissolve the pellet in 10 μL DEPC-treated water. Dilute 1 μL of the total RNA solution 100-fold and measure the OD values at 260 nm and 280 nm using a full-wavelength microplate reader.
# (§10) Following the method described in the kit manual, subsequent experiments were conducted using a 20 μL reverse transcription reaction system:
# (§11) Primers were designed based on the nucleotide sequence of the mouse in GenBank and synthesized.
# (§12) Perform subsequent experiments using a 20 μL reaction system according to the kit instructions:
# (§13) After adding the above reagents to micro reaction tubes, seal them with the cap and place them in the Q-PCR instrument. Set the parameters according to the following reaction conditions to perform the amplification experiment.
# (§14) Record the threshold cycle (Ct) values for each group and perform calculation and analysis using the 2^−ΔΔCt method (setting the expression level of the reference gene Gapdh as 1 to correct the expression levels of the target genes).
# (§15) Data Statistics: All data are presented as Means±S.E.M. Analysis of variance (ANOVA) was performed to assess the significance of differences. Groups showing significant differences in ANOVA were further compared using one-way ANOVA and Dunnett's test. A P-value <0.05 was considered statistically significant.
# [6] = test system: inflammatory factors (TNF, IL-6, IL-1) in liver tissue; experiment: LPS-induced sepsis, hepatic inflammatory factor mRNA (Q-PCR); details: for Tnf mRNA expression, liver: LPS 8.92; for Il6 mRNA expression, liver: LPS 11.34; for Il1 mRNA expression, liver: LPS 11.52
# Description: as §6, §7, §8, §9, §10, §11, §12, §13, §14, §15
# [7] = test system: serum creatinine and blood urea nitrogen; experiment: Folic acid-induced acute kidney injury, serum creatinine and urea; type: in vivo, C57BL/6 mice; design: unit not given here; details: folic acid acute model
# Description: Except for the normal group, all other mice were administered folic acid (250 mg/kg) dissolved in 0.9% NaHCO3 solution via intraperitoneal injection to establish an acute kidney injury model.
# as §5
# Serum Creatinine (Scr) and Blood Urea Nitrogen (BUN) Level Assay: 10 μL of serum from each sample was used for creatinine and urea level detection. Samples were added sequentially strictly following the kit instructions. After incubation at 37° C., absorbance values were measured using an enzyme-linked immunosorbent assay (ELISA) reader. The concentration levels of each indicator were calculated based on the standard curve.
# [8] = Water solubility testing of compounds (HPLC); details: deionized water, water, Water-solubility, 37 °C
SMILES,IL-1β ([1]; 0.1 mg/kg) [pg/mL],IL-6 ([1]; 0.1 mg/kg) [pg/mL],IL-1β ([1]; 1 mg/kg) [pg/mL],IL-6 ([1]; 1 mg/kg) [pg/mL],ALT (serum ALT and AST; 1 mg/kg oral) [U/L],AST (serum ALT and AST; 1 mg/kg oral) [U/L],"Acta2 mRNA expression, liver ([2]; 1 mg/kg oral)","Col1a1 mRNA expression, liver ([2]; 1 mg/kg oral)","Tgfb1 mRNA expression, liver ([2]; 1 mg/kg oral)","Il1 mRNA expression, kidney ([3]; 1 mg/kg oral, 1 mg/kg)","Il6 mRNA expression, kidney ([3]; 1 mg/kg oral, 1 mg/kg)","Tnf mRNA expression, kidney ([3]; 1 mg/kg oral, 1 mg/kg)","Il1 mRNA expression, kidney ([4]; 30 mg/kg oral)","Il6 mRNA expression, kidney ([4]; 30 mg/kg oral)","Tnf mRNA expression, kidney ([4]; 30 mg/kg oral)","Tnf mRNA expression, kidney ([5]; 1 mg/kg oral)","Il1 mRNA expression, kidney ([5]; 1 mg/kg oral)","Il6 mRNA expression, kidney ([5]; 1 mg/kg oral)","Tnf mRNA expression, liver ([6]; 1 mg/kg oral)","Il6 mRNA expression, liver ([6]; 1 mg/kg oral)",also measured
CN(C)C[C@@H]1C(=O)O[C@H]2[C@H]1CC[C@@]1(C)C[C@]13CC[C@@](C)(O)[C@H]23 [Compound 20],1570.02 ± 62.95,2348.32 ± 202.75,708.74 ± 38.40,1172.00 ± 240.50,85.02 ± 15.84,153.34 ± 27.59,1.85 ± 0.77,1.16 ± 0.26,0.92 ± 0.21,2.77 ± 0.40,3.69 ± 1.26,5.09 ± 0.66,6.01 ± 0.99,11.80 ± 1.90,4.04 ± 0.33,6.20 ± 0.60,2.76 ± 0.59,2.43 ± 0.64,5.71 ± 0.61,3.93 ± 0.90,"Il1 mRNA expression, liver ([6]; 1 mg/kg oral): 3.07 ± 0.29"
CN(C)C[C@@H]1C(=O)O[C@H]2[C@H]1CC[C@@]1(C)C[C@]13CC[C@@](C)(O)[C@H]23 [Compound 21],1623.55 ± 32.64,2585.26 ± 273.50,888.28 ± 35.20,1288.32 ± 123.80,95.82 ± 2.72,215.82 ± 63.48,2.18 ± 0.42,1.26 ± 0.27,0.88 ± 0.16,3.55 ± 0.50,5.61 ± 2.10,7.53 ± 0.68,,,,6.04 ± 1.62,2.82 ± 0.33,2.70 ± 0.52,7.12 ± 1.12,4.82 ± 0.69,"ALT (serum ALT and AST; 0.1 mg/kg oral): 132.32 ± 31.96 U/L; AST (serum ALT and AST; 0.1 mg/kg oral): 385.64 ± 28.70 U/L; Acta2 mRNA expression, liver ([2]; 0.1 mg/kg oral): 2.86 ± 0.26; Col1a1 mRNA expression, liver ([2]; 0.1 mg/kg oral): 1.83 ± 0.53; Tgfb1 mRNA expression, liver ([2]; 0.1 mg/kg oral): 1.08 ± 0.29; BUN ([7]; 0.1 mg/kg oral): 30.08 ± 3.03; Scr (serum creatinine) ([7]; 0.1 mg/kg oral): 90.69 ± 12.83; BUN ([7]; 1 mg/kg oral): 18.95 ± 2.58; Scr (serum creatinine) ([7]; 1 mg/kg oral, 1 mg/kg): 50.39 ± 7.65; Il1 mRNA expression, kidney ([3]; 0.1 mg/kg oral): 5.32 ± 0.56; Il6 mRNA expression, kidney ([3]; 0.1 mg/kg oral): 14.31 ± 6.01; Tnf mRNA expression, kidney ([3]; 0.1 mg/kg oral): 7.10 ± 1.93; Tnf mRNA expression, kidney ([5]; 0.1 mg/kg oral): 6.70 ± 0.80; Il1 mRNA expression, kidney ([5]; 0.1 mg/kg oral): 6.56 ± 0.88; Il6 mRNA expression, kidney ([5]; 0.1 mg/kg oral): 6.05 ± 0.19; Tnf mRNA expression, liver ([6]; 0.1 mg/kg oral): 7.78 ± 1.68; Il6 mRNA expression, liver ([6]; 0.1 mg/kg oral): 8.96 ± 0.70; Il1 mRNA expression, liver ([6]; 0.1 mg/kg oral): 10.32 ± 1.45; Il1 mRNA expression, liver ([6]; 1 mg/kg oral): 4.22 ± 0.90"
CC1=C2CC[C@@](C)(OC(=O)N3CCCCC3)[C@@H]2[C@H]2OC(=O)[C@@H](CN(C)C)[C@@H]2CC1 [Compound 102],,,,,,,,,,,,,,,,,,,,,solubility [8]: 132 mg/mL
CC1=C2CC[C@@](C)(OC(=O)N3CCCC3)[C@@H]2[C@H]2OC(=O)[C@@H](CN3CCCC3)[C@@H]2CC1 [Compound 103],,,,,,,,,,,,,4.11 ± 0.41,1.83 ± 0.91,4.10 ± 0.67,,,,,,"BUN ([7]; 0.1 mg/kg oral): 23.42 ± 13.11; Scr (serum creatinine) ([7]; 0.1 mg/kg oral): 74.95 ± 21.37; BUN ([7]; 1 mg/kg oral): 20.38 ± 10.82; Scr (serum creatinine) ([7]; 1 mg/kg oral): 73.88 ± 14.26; BUN ([7]; 10 mg/kg oral): 17.72 ± 7.78; Scr (serum creatinine) ([7]; 10 mg/kg oral): 45.19 ± 7.41; Il1 mRNA expression, kidney ([3]; 0.1 mg/kg oral): 5.45 ± 2.35; Il6 mRNA expression, kidney ([3]; 0.1 mg/kg oral): 52.89 ± 40.54; Tnf mRNA expression, kidney ([3]; 0.1 mg/kg oral): 4.21 ± 0.82; Il1 mRNA expression, kidney ([3]; 1 mg/kg oral): 3.49 ± 0.93; Il6 mRNA expression, kidney ([3]; 1 mg/kg oral): 32.19 ± 25.90; Tnf mRNA expression, kidney ([3]; 1 mg/kg oral): 3.80 ± 0.40; Il1 mRNA expression, kidney ([3]; 10 mg/kg oral): 3.19 ± 0.85; Il6 mRNA expression, kidney ([3]; 10 mg/kg oral): 31.08 ± 18.80; Tnf mRNA expression, kidney ([3]; 10 mg/kg oral): 3.06 ± 0.47; Il1 mRNA expression, kidney ([4]; 10 mg/kg, oral): 6.78 ± 0.96; Il6 mRNA expression, kidney ([4]; 10 mg/kg, oral): 2.47 ± 0.53; Tnf mRNA expression, kidney ([4]; 10 mg/kg, oral): 7.24 ± 3.10; solubility [8]: 278 mg/mL"

# — patent US20260315434A1, “USE OF GUAIACOL SESQUITERPENE LACTONE DERIVATIVES” (NANJING UNIVERSITY OF CHINESE MEDICINE, priority 2023, published 2026)
